In BindingDB's records for PubMed 39651809 (Pfizer Inc.):

Test: Inhibition of SLP76 phosphorylation at Ser376 in human Jurkat cells incubated for 30 mins by HTRF assay

SMILES	IC50 [nM]
CC(C)n1cnnc1-c1cccc(NC(=O)c2cccc3c2OCC(N)C3)n1 (stereo not drawn)	1080
CC(C)n1cnnc1-c1cccc(NC(=O)c2cccc3c2nc(CN)n3C)n1	1070
CCC(C)n1cnnc1-c1cccc(NC(=O)c2cccc3c2OCC(N)C3)n1 (stereo not drawn)	222
CC[C@H](C)n1cnnc1-c1cccc(NC(=O)c2cccc3c2nc(CN)n3C)n1	139
CNCc1cc(OC)cc2c1CN(c1cccc(-c3nncn3C(C)C)n1)C2=O	383
CNCc1cc(OC)cc2c1CN(c1cccc(-c3nncn3[C@@H](C)CC(F)(F)F)n1)C2=O	115
COc1ccc2c(c1CN)CN(c1cccc(-c3nncn3[C@@H](C)CC(F)(F)F)n1)C2=O	520

Results, then the compound that gave them:

IC50 [nM]	SMILES
112	CNCc1nc(N(C)C)cc2c1CN(c1cccc(-c3nncn3C(C)C)n1)C2=O [US11142525, Example 1]
70	CNCc1nc(N(C)C)cc2c1CN(c1cccc(-c3nncn3[C@@H](C)CC(F)(F)F)n1)C2=O [US11142525, Example 17]
121	CCCn1cnnc1-c1cccc(N2Cc3c(cc(N(C)C)nc3CNC)C2=O)n1 [US11142525, Example 46]
34	CCCn1cnnc1-c1cccc(N2Cc3c(cc(N4CCC[C@H]4C)nc3CNC)C2=O)n1 [US11142525, Example 55]
87	CCCn1cnnc1-c1cccc(N2Cc3c(cc(N(C)C(C)C)nc3CNC)C2=O)n1 [US11142525, Example 63]
81	CCCn1c(C)nnc1-c1cccc(N2Cc3c(cc(N(C)C(C)C)nc3CNC)C2=O)n1 [US11142525, Example 64]
53	C[C@@H]1CCCN1c1cc2c(c([C@@H](C)N)n1)CN(c1cccc(-c3nnc4n3[C@@H](C)CC4)n1)C2=O [US11684616, Example 24]
53	CC[C@@H](N)c1nc(N2CCC[C@H]2C)cc2c1CN(c1cccc(-c3nncn3CC)n1)C2=O [US11684616, Example 140]
37	CC[C@H]1CCc2nnc(-c3cccc(N4Cc5c(cc(N(C)C(C)C)nc5CNC)C4=O)n3)n21 [US11684616, Example 201]
52	CNCc1nc(N(C)C(C)C)cc2c1CN(c1cccc(-c3nnc4n3[C@@H](CF)CC4)n1)C2=O [US11684616, Example 205]
47	CNCc1nc(N(C)C(C)C)cc2c1CN(c1cccc(-c3nnc4n3[C@@H](C)CC4)n1)C2=O [US11684616, Example 210]
